One block for each compound: values may come before it.
Legend:
TDP-43 = test: Four TDP-43 tests (stress granule enrichment, subcellular localization, CFTR alternative splicing, G146A aggregation); format: cell-based
From the text: The 13 selected compounds have then been tested in the three cellular tests, i.e. enrichment of wt TDP-43 in stress granules and their subcellular localization in presence of the compounds to be tested, and the effects of the compounds to be tested on the alternative splicing of the cystic fibrosis transmembrane conductance regulator (CFTR) gene by wt TDP-43. Finally, the effects of the 13 compounds on the aggregation of the G146A mutant of TDP-43 has been tested.

p53/MDM2 interaction = target: T1, p53/MDM2 interaction (Homo sapiens, UniProt Q00987); test: MT bench cell-based assay of p53/MDM2 interaction on HCS (PCC co-localization score); details: for inhibition of the p53/MDM2 interaction: U-2 OS cells
T1 construct: Human p53 and MDM2 full length cDNA were amplified by PCR; expressed in transfected cells; host or cells: U-2 OS (human osteosarcoma)
Method: The MT bench was done using Human Osteosarcoma (U-2 OS) cell line which is the reference for cellular imagery. U-2 OS cells were cultured at 37°C in a humidified atmosphere with 5% CO2 in Dulbecco's modified Eagle's medium (DMEM, Life Technologies) supplemented with 10% FBS (Fetal Bovine Serum, Life Technologies) and 1% penicillin/streptomycin.
The generation of the cellular plate (seeding, transfection, treatment) was done automatically using the liquid handler BRAVO from Agilent equipped with a 96-LT (Large Tips) head. U-2 OS cells were seeded on black 96-well plates cell carrier ultra (PerkinElmer) at a density of 18.000 cells per well and after 24h incubation in a humidified incubator at 37°C with 5% CO2 were co-transfected with 12µg human p53-FL(SEQ ID N°15)_C_RFP- MBD and 03µg human MDM2-FL(SEQ ID N°21)_C_GFP plasmids for the positive control (untreated condition) or 12µg human p53-F19AW23AL26A(SEQ ID N°20)_C_RFP-MBD and 0.3µg human MDM2-FL(SEQ ID N°21)_C_GFP plasmids corresponding to the negative control (non-interacting condition / treated condition) using 0.5µg Lipofectamine 2000 (Invitrogen) in optiMEM for 18h.
After 18h of transfection, cells were fixed with ice-cold methanol 100% for 10min at -20°C, washed with PBS and then further fixed with 4% Para FormAldehyde (PFA) in PBS freshly prepared for 10min at RT. […] After washing with PBS, cell nuclei were stained with DAPI (0.1µg/mL) for 5min at RT and samples kept into PBS for fluorescence microscopy imaging. The cellular fluorescent signal was acquired on HCS imaging system Opera Phenix from PerkinElmer, using a 40X water immersion 1.1NA objective and with Harmony® software.
After image acquisition, successive building blocks from Harmony® software was used for image segmentation (find nuclei, find cytoplasm, and select population through threshold on GFP and RFP maximum and mean intensities, as well as cell area). Both images were then filtered using SER Ridge filters to highlight microtubule structures in the cytoplasm.
The PCC is a well-established correlation score to measure co-localization and calculated as follows [formula] where Ri and Gi are the pixel intensity values and Rav and Gav are the means of red and green channel, respectively. The values are range between +1 (perfect correlation) to -1 (perfect inverse correlation), with 0 being the absence of co-localization. Thus, the PCC values reflect the co-localization between bait and prey proteins into cytoplasm, translating the interaction on the microtubule network.
This normalization was done by extrapolating the PCC values relatively to the controls, by using the mean of negative control wells and the mean of positive control wells.

[1] = cellular data, Vu et al., 2013; read-out: IC50 MTT assay; cited from earlier work
MDM2-FL_C_GFP (human) = MDM2-FL_C_GFP (human) (UniProt Q00987); test: MT bench normalized PCC score, fixed U-2 OS cells
Sequence of MDM2-FL_C_GFP (human) (Q00987 whole entry): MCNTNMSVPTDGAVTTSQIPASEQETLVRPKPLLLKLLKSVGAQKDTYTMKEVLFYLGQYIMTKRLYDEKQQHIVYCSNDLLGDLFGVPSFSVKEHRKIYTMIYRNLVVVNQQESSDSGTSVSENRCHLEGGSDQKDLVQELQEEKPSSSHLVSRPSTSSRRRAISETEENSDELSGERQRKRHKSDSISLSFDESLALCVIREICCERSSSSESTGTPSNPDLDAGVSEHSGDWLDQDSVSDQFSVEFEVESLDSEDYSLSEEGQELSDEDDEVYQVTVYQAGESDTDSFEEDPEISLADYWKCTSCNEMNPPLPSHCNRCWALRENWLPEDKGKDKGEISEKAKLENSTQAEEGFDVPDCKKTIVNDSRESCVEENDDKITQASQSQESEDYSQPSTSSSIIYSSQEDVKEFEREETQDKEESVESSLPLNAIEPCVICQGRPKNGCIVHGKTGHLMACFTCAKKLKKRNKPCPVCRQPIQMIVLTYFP

T1 sequence (Q00987 whole entry): as above

Compound: Nc1ncnc2c1c(I)cn2[C@@H]1O[C@H](CO)[C@@H](O)[C@H]1O [5-iodotubercidin]
effect in the four tests (TDP-43): showed an effect on at least two of the four tests

Compound: O=C1C(=O)c2ccccc2-c2ccccc21 [9,10-Phenanthrenequinone]
effect in the four tests (TDP-43): showed an effect on at least two of the four tests

Compound: O=C1Nc2ccc3ncsc3c2C1=Cc1cnc[nH]1 [PKRi]
effect in the four tests (TDP-43): showed an effect on at least two of the four tests

Compound: CCOc1cc(C(C)(C)C)ccc1C1=N[C@@](C)(c2ccc(Cl)cc2)[C@@](C)(c2ccc(Cl)cc2)N1C(=O)N1CCN(CCCS(C)(=O)=O)CC1 [RG7112]
inhibition of the p53/MDM2 interaction (p53/MDM2 interaction; 0.05µM (low concentration)): weak inhibition of the interaction
inhibition of the p53/MDM2 interaction (p53/MDM2 interaction; 0.5µM (medium concentration)): moderate inhibition of the interaction
inhibition of the p53/MDM2 interaction (p53/MDM2 interaction; 5µM (high concentration)): strong inhibition of the interaction
inhibition of the p53/MDM2 interaction (p53/MDM2 interaction; 50µM (high concentration)): strong inhibition of the interaction
disruption of p53/MDM2 interaction and re-localization of MDM2 in the nucleus (p53/MDM2 interaction; increasing concentrations 0.05µM, 0.5µM, 5µM, 50µM, fixed U-2 OS cells): dose-dependent manner
IC50 [1]: 400 nM

percent of the interaction abrogated (against wild-type p53) (MDM2-FL_C_GFP (human)): > 90%
Compound: p53-F19A_C_RFP-MBD

— patent EP4459287A1, “METHODS AND TOOLS FOR DETECTING THE IMPACT OF COMPOUNDS ON PROTEIN, RNA OR DNA INTERACTIONS” (Synsight "Génopole Entreprises", priority 2023, dated 2024)
